Laboratory results from patent US9382276B2, “Water-soluble O-carbonyl phosphoramidate prodrugs for therapeutic administration” (MicuRx Pharmaceuticals, Inc., priority 2014, dated 2016).
Converted amounts (≈) assume the structure as drawn.

How the values were obtained:
[1] = tested on: Staphylococcus aureus strain SAU1018; assay: mouse peritonitis infection model (survival, ED50); format: in vivo; conditions: parent drug control in same test, in 20% aqueous beta-hydroxypropylcyclodextrin (HPCD) formulation, read-out: ED50 (effective dose for survival of 50% of animals)
[2] = in vivo; conditions: rat, iv, 10 mg/kg
[3] = physchem; conditions: water or conventional aqueous solutions, thermodynamic from solid
[4] = pH range of about 3-9

O=C1C=CN(c2c(F)cc(N3C[C@H](CNc4ccon4)OC3=O)c(F)c2F)CC1 [MRX-I]
ED50 [1]: 10 mg/kg | AUC [2]: ~25400 ng·h/mL | solubility [3]: ~250 µg/mL (≈ 612 µM) | pH dependence of solubility in water [4]: virtually pH-independent
